System: sugar cane varieties SP803280 and RB835486
Test: Glasshouse safening test: visual phytotoxicity of pre-emergent herbicides on sugar cane grown from safener-soaked single-node stem sections
Type: in vivo
Procedure: In the following examples, two commercial and contemporary Brazilian sugar cane varieties were used in the experiential testing, SP803280 and RB835486. The sugar cane propagation material was prepared using single-node stem sections approximately 8 cm in length. The stem sections were treated by soaking for about 10 seconds in a solution containing Formula A=1-[4-(N-2-methoxybenzoylsulfamoyl)phenyl]-3-methylurea (15 ml of formulated product in 500 ml water; the formulated product contained 100 grams of Formula A per liter of formulated product). Four stem segments (replicates) were planted in and covered with 1 cm of the regular live loam soil used in glasshouse screening using standard planting troughs, putting each variety in a separate trough. Seeds of one of two appropriate weeds, Euphorbia heterophylla or Brachiaria decumbens were also planted in each trough in a clump to give a measure of relative weeds control alongside crop phytotoxicity. Plants were assessed for percentage visual phytotoxicity at 7 day intervals after application (DAA) up to 35 DAA. Three herbicides, all having different modes-of-action were applied the day after planting as pre-emergent herbicide. The herbicides applied were: clomazone (Gamit®) having a DOXP mode-of-action (inhibition of the 1-desoxy-D-xylulose 5-phosphate), sufentrazone (Boral®) having a PPO mode-of-action (inhibition of protoporphyrinogen oxidase), and bicyclopyrone having an HPPD mode-of-action (inhibition of the enzyme 4-hydoxyphenylpyruvate dioxygenase). Application of each herbicide was applied at 600, 1200, 1600, and 2000 grams per hectare equivalents. Results: Shown in FIGS. 1-12 (DAA—Herbicide—Sugar Cane Variety)

| SMILES | phytotoxicity level of sulfentrazone without Formula A safening (sugar cane, in vivo) [%] | safening of sulfentrazone (both varieties of sugar cane, stem sections soaked in Formula A) | phytotoxicity level with sulfentrazone after Formula A treatment (percentage visual phytotoxicity, reduced from 80%, in certain instances) | safening of bicyclopyrone (stem sections soaked in Formula A, bicyclopyrone applied pre-emergent) | safening of clomazone (stem sections soaked in Formula A, clomazone applied pre-emergent) | safening effect as sugar cane propagation material applied safener (with all three herbicides (clomazone, sulfentrazone, bicyclopyrone), applied pre-emergent at 600-2000 g/ha, FIGS. 1-12, 28 and 35 DAA) |
| --- | --- | --- | --- | --- | --- | --- |
| Cc1nn(-c2cc(NS(C)(=O)=O)c(Cl)cc2Cl)c(=O)n1C(F)F [sulfentrazone, reference compound] | 80 | – | – | – | – | – |
| CNC(=O)Nc1ccc(S(=O)(=O)NC(=O)c2ccccc2OC)cc1 [Formula A, 1-[4-(N-2-methoxybenzoylsulfamoyl)phenyl]-3-methylurea] | – | very effectively | zero | strong safening | strong safening | clear safening effect |

Source: patent publication US20150305328A1, “METHODS OF SAFENING SUGAR CANE PLANTS WITH N-ACYLSULFAMOYLPHENYLUREAS” (SYNGENTA PARTICIPATIONS AG, priority 2012, published 2015)
